Results taken from PMC7094737 (Journal of Molecular Biology, 2008).
Where a chain is given by its changes, count along the chain named.

Experiments:
macro domains = experiment: Filter binding with radioactive NAD+ alone
MDO2 [1] = target: T1, MDO2 (Homo sapiens, UniProt A1Z1Q3); experiment: [32P]poly; assay type: binding; settings: to MDO2; Fig. 3c
T1 sequence (A1Z1Q3 1-243): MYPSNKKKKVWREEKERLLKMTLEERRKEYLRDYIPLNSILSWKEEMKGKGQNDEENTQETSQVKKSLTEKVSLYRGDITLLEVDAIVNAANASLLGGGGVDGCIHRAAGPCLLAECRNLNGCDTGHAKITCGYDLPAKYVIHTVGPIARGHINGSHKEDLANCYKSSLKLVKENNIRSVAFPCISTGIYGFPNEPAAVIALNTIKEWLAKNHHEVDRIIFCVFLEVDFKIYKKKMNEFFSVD

GDAP2 [2] = target: T2, GDAP2 (Homo sapiens, UniProt Q9NXN4); experiment: [32P]poly; assay type: binding; settings: to GDAP2; Fig. 3c
T2 sequence (Q9NXN4 1-231 isoform Q9NXN4-2): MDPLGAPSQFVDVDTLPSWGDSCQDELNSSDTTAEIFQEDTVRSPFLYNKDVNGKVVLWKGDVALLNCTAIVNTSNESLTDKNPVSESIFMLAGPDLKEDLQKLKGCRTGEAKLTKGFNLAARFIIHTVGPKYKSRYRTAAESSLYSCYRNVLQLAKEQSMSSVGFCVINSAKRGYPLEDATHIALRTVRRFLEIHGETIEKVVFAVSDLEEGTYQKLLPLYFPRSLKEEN

MDO1 [3] = target: T3, MDO1 (Homo sapiens, UniProt Q9BQ69); experiment: Competition for poly; assay type: binding; settings: data not shown
T3 sequence (Q9BQ69 83-325): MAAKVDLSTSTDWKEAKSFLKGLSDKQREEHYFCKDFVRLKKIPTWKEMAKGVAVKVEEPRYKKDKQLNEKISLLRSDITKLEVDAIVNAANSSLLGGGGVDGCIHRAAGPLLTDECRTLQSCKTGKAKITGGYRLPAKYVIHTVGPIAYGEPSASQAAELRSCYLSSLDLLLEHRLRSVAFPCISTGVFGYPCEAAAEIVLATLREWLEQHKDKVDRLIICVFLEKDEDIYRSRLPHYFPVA

SFV macro = target: T4, SFV macro (Semliki forest virus, UniProt P08411); experiment: Competition for poly; assay type: binding; settings: data not shown
T4 sequence (P08411 1337-1495 limits assumed): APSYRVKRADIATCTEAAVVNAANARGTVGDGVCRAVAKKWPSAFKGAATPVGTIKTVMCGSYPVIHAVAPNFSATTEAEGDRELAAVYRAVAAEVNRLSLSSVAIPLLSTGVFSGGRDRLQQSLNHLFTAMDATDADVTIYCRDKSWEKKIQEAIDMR

HEV macro [4] = target: T5, HEV macro (Hepatitis E virus genotype 1, UniProt P29324); experiment: Competition for poly; assay type: binding; settings: data not shown
T5 sequence (P29324 775-960): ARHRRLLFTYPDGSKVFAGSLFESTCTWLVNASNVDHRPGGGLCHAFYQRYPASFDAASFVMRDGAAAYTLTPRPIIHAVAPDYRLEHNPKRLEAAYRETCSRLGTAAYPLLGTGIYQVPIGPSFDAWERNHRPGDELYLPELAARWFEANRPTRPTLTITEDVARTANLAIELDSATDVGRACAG

MDO1 [5] = target: T3, MDO1; assay type: binding; settings: to MDO1; Fig. 3b
MDO2 [6] = target: T1, MDO2; assay type: binding; settings: to MDO2; Fig. 3b
GDAP2 [7] = target: T2, GDAP2; assay type: binding; settings: to GDAP2
Poa1p = target: T6, Poa1p (Saccharomyces cerevisiae, UniProt P38218, S2A); assay type: binding; settings: to Poa1p; Fig. 3b
T6 sequence (P38218 1-177 S2A): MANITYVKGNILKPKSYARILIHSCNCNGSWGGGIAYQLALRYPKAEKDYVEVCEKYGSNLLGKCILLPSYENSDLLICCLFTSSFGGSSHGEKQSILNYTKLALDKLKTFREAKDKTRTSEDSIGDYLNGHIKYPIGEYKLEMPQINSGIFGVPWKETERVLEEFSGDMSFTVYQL

SFV macro (nsP3) [8] = target: T7, SFV macro (nsP3) (Semliki forest virus, UniProt P08411); assay type: binding; settings: to SFV macro; Fig. 3b
T7 sequence (P08411 1337-1503 limits assumed): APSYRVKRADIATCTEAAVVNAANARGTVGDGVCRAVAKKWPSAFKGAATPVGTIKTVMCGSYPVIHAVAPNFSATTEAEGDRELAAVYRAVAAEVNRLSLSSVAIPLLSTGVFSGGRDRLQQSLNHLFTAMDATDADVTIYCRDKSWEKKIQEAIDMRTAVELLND

HEV macro [9] = target: T5, HEV macro; assay type: binding; settings: to HEV macro; Fig. 3b
MDO1 G182Y + G270Y = target: T8, MDO1 G182Y + G270Y (Homo sapiens, UniProt Q9BQ69, G182Y/G270Y); assay type: binding; settings: filter washed with 1 M NaCl, not shown
T8 sequence (Q9BQ69 83-325 G182Y/G270Y): T3 sequence (Q9BQ69 83-325) with G100Y, G188Y

macro proteins = assay type: biochemical
MDO1 [10] = target: T3, MDO1; experiment: ADPR-1″P hydrolysis; assay type: biochemical; settings: by MDO1; Fig. 2, TLC
MDO2 [11] = target: T1, MDO2; experiment: ADPR-1″P hydrolysis; assay type: biochemical; settings: by MDO2; Fig. 2, TLC
GDAP2 [12] = target: T2, GDAP2; experiment: ADPR-1″P hydrolysis; assay type: biochemical; settings: by GDAP2; Fig. 2, TLC
SFV macro (nsP3) [13] = target: T7, SFV macro (nsP3); experiment: ADPR-1″P hydrolysis; assay type: biochemical; settings: by SFV nsP3 (167-aa and 328-aa similar); Fig. 2, TLC
MDO1 [14] = target: T3, MDO1; assay type: binding; settings: MDO1, 500 mM NaCl, data not shown
[15] = molar excess of poly(A) ∼ 400-fold
[16] = monomeric ADP-ribose 1500-fold excess

NC(=O)c1ccc[n+]([C@@H]2O[C@H](COP(=O)([O-])OP(=O)(O)OC[C@H]3O[C@@H](n4cnc5c(N)ncnc54)[C@H](O)[C@@H]3O)[C@@H](O)[C@H]2O)c1 [NAD ^+]
radioactive signal on filter-bound macro domains (macro domains): no radioactive signal

poly(A)
poly(A) binding (in words) (MDO2 [1]): did not bind poly(A) | poly(A) binding (in words) (GDAP2 [2]): bound poly(A) | competition for the binding of poly(ADP-ribose) (MDO1 [3]; [15]): no competition | competition for the binding of poly(ADP-ribose) (SFV macro; [15]): no competition | competition for the binding of poly(ADP-ribose) (HEV macro [4]; [15]): no competition

poly(ADP-ribose)
poly(ADP-ribose) binding (in words) (MDO1 [5]): bound poly(ADP-ribose) | poly(ADP-ribose) binding (in words) (MDO2 [6]): did not show effective binding | poly(ADP-ribose) binding (in words) (GDAP2 [7]): inefficient | poly(ADP-ribose) binding (in words) (Poa1p): did not show effective binding | poly(ADP-ribose) binding (in words) (SFV macro (nsP3) [8]): bound poly(ADP-ribose) effectively | poly(ADP-ribose) binding (in words) (HEV macro [9]): bound poly(ADP-ribose) effectively | poly(ADP-ribose) binding after stringent wash (MDO1 G182Y + G270Y): did not have an effect on poly(ADP-ribose) binding | poly(ADP-ribose) hydrolysis activity (macro proteins): None of the macro proteins degraded poly(ADP-ribose)

Nc1ncnc2c1ncn2[C@@H]1O[C@H](COP(=O)(O)OP(=O)(O)OC[C@H]2O[C@H](OP(=O)(O)O)[C@H](O)[C@@H]2O)[C@@H](O)[C@H]1O [ADPR-1″P, ADP-ribose-1″ phosphate]
ADPR-1″P hydrolysis (in words) (MDO1 [10]): equally efficiently as yeast Poa1p | ADPR-1″P hydrolysis (in words) (MDO2 [11]): equally efficiently as yeast Poa1p | ADPR-1″P hydrolysis (in words) (GDAP2 [12]): inactive | ADPR-1″P hydrolysis (in words) (SFV macro (nsP3) [13]): only a minor activity

ADP-ribose
dissociation constant in high-salt buffer versus standard conditions (MDO1 [14]): approximately twofold | competition for the binding of poly(ADP-ribose) (MDO1 [3]; [16]): no competition | competition for the binding of poly(ADP-ribose) (SFV macro; [16]): no competition | competition for the binding of poly(ADP-ribose) (HEV macro [4]; [16]): no competition
